Experimental data as given in the supplement of paper PMC10307832.

How the values were obtained:
Assay in all cases: relative viability (nuclei count vs DMSO), 5 days (fraction); higher = more cells survive
Zebularine + Trametinib = compound: O=c1ncccn1[C@@H]1O[C@H](CO)[C@@H](O)[C@H]1O [Zebularine] + CC(=O)Nc1cccc(-n2c(=O)n(C3CC3)c(=O)c3c(Nc4ccc(I)cc4F)n(C)c(=O)c(C)c32)c1 [Trametinib] (partner 0.02 µM)
Procedure, shortened: (§1)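 Lung cancer cell lines, seeded in 1536-well plates, were treated the following day by pin tool with a single drug or with five library-drug doses (not always all listed) in √10 steps on top of a fixed anchor-drug dose. Cells were fixed and nuclei stained in one step after 5 days, and nuclei were counted. Relative viability is the nuclei count for treated wells divided by that for vehicle wells, reported as medians of duplicate plates.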

Zebularine + Navitoclax = compound: O=c1ncccn1[C@@H]1O[C@H](CO)[C@@H](O)[C@H]1O [Zebularine] + CC1(C)CCC(c2ccc(Cl)cc2)=C(CN2CCN(c3ccc(C(=O)NS(=O)(=O)c4ccc(N[C@H](CCN5CCOCC5)CSc5ccccc5)c(S(=O)(=O)C(F)(F)F)c4)cc3)CC2)C1 [Navitoclax] (partner 0.5 µM)
Procedure, shortened: as §1

BI-D1870 + Foretinib = compound: CC(C)CCN1c2nc(Nc3cc(F)c(O)c(F)c3)ncc2N(C)C(=O)C1C [BI-D1870] + COc1cc2c(Oc3ccc(NC(=O)C4(C(=O)Nc5ccc(F)cc5)CC4)cc3F)ccnc2cc1OCCCN1CCOCC1 [Foretinib] (partner 0.25 µM)
Procedure, shortened: as §1

BI-D1870 + Vorinostat = compound: CC(C)CCN1c2nc(Nc3cc(F)c(O)c(F)c3)ncc2N(C)C(=O)C1C [BI-D1870] + O=C(CCCCCCC(=O)Nc1ccccc1)NO [Vorinostat] (partner 1 µM)
Procedure, shortened: as §1

| Cell Line | relative viability (Zebularine + Trametinib; first compound 1 µM) | relative viability (Zebularine + Trametinib; first compound 3.162 µM) | relative viability (Zebularine + Trametinib; first compound 10 µM) | relative viability (Zebularine + Trametinib; first compound 31.62 µM) | relative viability (Zebularine + Trametinib; first compound 100 µM) | relative viability (Zebularine + Navitoclax; first compound 1 µM) | relative viability (Zebularine + Navitoclax; first compound 3.162 µM) | relative viability (Zebularine + Navitoclax; first compound 10 µM) | relative viability (Zebularine + Navitoclax; first compound 31.62 µM) | relative viability (Zebularine + Navitoclax; first compound 100 µM) | relative viability (BI-D1870 + Foretinib; first compound 0.04 µM) | relative viability (BI-D1870 + Foretinib; first compound 0.1265 µM) | relative viability (BI-D1870 + Foretinib; first compound 0.4 µM) | relative viability (BI-D1870 + Foretinib; first compound 1.265 µM) | relative viability (BI-D1870 + Foretinib; first compound 4 µM) | relative viability (BI-D1870 + Vorinostat; first compound 0.04 µM) | relative viability (BI-D1870 + Vorinostat; first compound 0.1265 µM) | relative viability (BI-D1870 + Vorinostat; first compound 0.4 µM) | relative viability (BI-D1870 + Vorinostat; first compound 1.265 µM) | relative viability (BI-D1870 + Vorinostat; first compound 4 µM) |
| --- | --- | --- | --- | --- | --- | --- | --- | --- | --- | --- | --- | --- | --- | --- | --- | --- | --- | --- | --- | --- |
| HOP-62 | 0.456 | 0.435 | 0.282 | 0.244 | 0.191 | 1.11 | 1.01 | 0.424 | 0.217 | 0.197 | 1.27 | 1.03 | 1.07 | 1.06 | 0.924 | 0.737 | 0.669 | 0.602 | 0.703 | 0.464 |
| LC-2-ad | 0.957 | 0.979 | 0.657 | 0.777 | 0.356 | 0.409 | 0.422 | 0.291 | 0.33 | 0.137 | 1.01 | 0.932 | 0.946 | 0.975 | 0.626 | 0.696 | 0.646 | 0.701 | 0.705 | 0.56 |
| LCLC-97TM1 | 0.223 | 0.209 | 0.128 | 0.188 | 0.174 | 0.422 | 0.351 | 0.238 | 0.149 | 0.143 | 1.1 | 0.975 | 0.893 | 1.09 | 0.843 | 1 | 0.684 | 0.722 | 0.868 | 0.472 |
| LK-2 | 0.626 | 0.669 | 0.476 | 0.459 | 0.441 | 0.759 | 0.946 | 0.588 | 0.787 | 0.417 | 1.32 | 1.13 | 1.34 | 1.51 | 1.6 | 0.351 | 0.391 | 0.468 | 0.277 | 0.279 |
| LOU-NH91 | 0.773 | 0.814 | 0.718 | 0.843 | 0.65 | 0.676 | 0.659 | 0.634 | 0.603 | 0.395 | 0.979 | 0.897 | 0.876 | 1.01 | 0.817 | 0.991 | 0.859 | 0.876 | 0.858 | 0.655 |
| LU99A | 0.604 | 0.503 | 0.502 | 0.329 | 0.195 | 0.827 | 0.635 | 0.596 | 0.408 | 0.166 | 0.913 | 0.683 | 0.696 | 0.788 | 0.796 | 0.584 | 0.422 | 0.412 | 0.428 | 0.345 |
| LXF-289 | 0.796 | 0.731 | 0.651 | 0.488 | 0.296 | 1.02 | 0.945 | 0.851 | 0.744 | 0.226 | 1.01 | 0.942 | 0.956 | 0.941 | 0.88 | 0.681 | 0.738 | 0.695 | 0.695 | 0.527 |
| NCI-H23 | 0.486 | 0.443 | – | 0.405 | 0.412 | 0.775 | 0.802 | – | 0.818 | 0.86 | 1 | 1.03 | 0.986 | 0.83 | 0.781 | 0.555 | 0.619 | 0.489 | 0.448 | 0.202 |
| NCI-H322M | 0.489 | 0.515 | 0.481 | 0.551 | 0.509 | 1.37 | 1.19 | 1.13 | 0.917 | 0.82 | 1.06 | 0.805 | 0.868 | 0.87 | 0.696 | 0.919 | 0.879 | 0.76 | 0.781 | 0.769 |
| NCI-H441 | 0.485 | 0.416 | 0.316 | 0.315 | 0.213 | 0.815 | 0.467 | 0.366 | 0.368 | 0.245 | 1.08 | 0.787 | 1.05 | 1.05 | 0.804 | 0.686 | 0.794 | 0.731 | 0.722 | 0.655 |
| NCI-H460 | 0.24 | 0.182 | 0.0901 | 0.196 | 0.0781 | 1.26 | 1.18 | 0.0689 | 0.413 | 0.0857 | 1.09 | 0.869 | 0.974 | 1.06 | 0.305 | 0.922 | 0.643 | 0.672 | 0.37 | 0.0691 |
| NCI-H520 | 0.651 | 0.698 | 0.544 | 0.314 | 0.229 | 1.16 | 0.994 | 0.442 | 0.427 | 0.294 | 0.821 | 0.724 | 0.741 | 0.958 | 0.818 | 0.716 | 0.755 | 0.649 | 0.464 | 0.198 |
| NCI-H596 | 0.853 | 0.904 | 0.58 | 0.918 | 0.774 | 0.974 | 0.9 | 0.799 | 0.984 | 0.893 | 0.882 | 0.918 | 0.889 | 0.849 | 0.958 | 0.666 | 0.591 | 0.65 | 0.59 | 0.511 |
| NCI-H647 | 0.53 | 0.508 | 0.184 | 0.116 | 0.112 | 1.25 | 1.06 | 0.232 | 0.143 | 0.115 | 1.11 | 1.18 | 1.13 | 1.35 | 1.17 | 0.666 | 0.346 | 0.669 | 0.536 | 0.335 |
| NCI-H727 | 0.385 | 0.35 | 0.401 | 0.396 | 0.444 | 0.492 | 0.451 | 0.474 | 0.442 | 0.411 | 0.793 | 0.931 | 0.883 | 0.871 | 0.739 | 1.32 | 1.22 | 0.986 | 1.19 | 1.08 |
| NCI-H838 | 0.58 | 0.537 | 0.415 | 0.437 | 0.231 | 1.2 | 1.21 | 0.561 | 0.815 | 0.403 | 1.12 | 1.01 | 1.05 | 1.16 | 1.15 | 0.719 | 0.643 | 0.682 | 0.68 | 0.558 |
